Assay results reported in patent US20120108563A1, “Methods Of Treating Liposarcoma” (Infinity Pharmaceuticals, Inc., priority 2009, published 2012).

System: dedifferentiated metastatic liposarcoma
Experiment: Administration of compound 2 to a human subject with dedifferentiated metastatic liposarcoma (imaging assessment, RECIST)
Assay type: in vivo
Details: one human patient
Description: A human subject with dedifferentiated metastatic liposarcoma was treated with compound 2 at 400 mg/m^2. The patient received two doses of compound 2 at 400 mg/m^2 during the first cycle of therapy. The patient received two doses at 300 mg/m^2 during the second cycle of therapy. The patient then received 225 mg/m^2 for seven cycles of therapy. […] The patient received a total of 9 cycles of compound 2 with maximal tumor shrinkage occurring after 7 cycles (54% tumor shrinkage).

[1] = after first cycle of therapy (two doses at 400 mg/m^2)

C=CCNc1c(O)cc2c(O)c1C[C@@H](C)C[C@H](OC)[C@H](O)[C@@H](C)/C=C(\C)[C@H](OC(N)=O)[C@@H](OC)/C=C\C=C(/C)C(=O)N2.Cl [compound 2, Hydrochloride Salt of the Hydroquinone of 17-AAG]
maximal tumor shrinkage (after 7 cycles, of 9 cycles in total): 54%
imaging assessment of response (RECIST) [1]: stable disease
tumor shrinkage using Response Evaluation Criteria in Solid Tumors (RECIST) [1]: 28%
response achieved (by the end of cycle 3): partial response
tumor shrinkage (by the end of cycle 3 (cycle 1 at 400 mg/m^2, cycle 2 at 300 mg/m^2, then 225 mg/m^2)): 35%
